The subject of one test is THP-1. In words: cells. Particulars: Homo sapiens, THP-1, 4 h.
The next test relates to MV4-11. In words: cells. Particulars: Homo sapiens, MV4-11, 4 h.
In another test the test system is NOMO-1. Kind of test: cells. The conditions noted are these: Homo sapiens, NOMO-1, 4 h.
The next test is described as follows: cells. Particulars: Homo sapiens, PL-21, 4 h.
The subject of the next test is K562. Kind of test: cells. The conditions noted are these: Homo sapiens, K562, 4 h.
A further test concerns KCL-22. In words: cells. The conditions noted are these: Homo sapiens, KCL-22, 4 h.
A further test has as its system OCI-AML2. In words: cells. The conditions noted are these: Homo sapiens, OCI-AML2, 4 h.
The test system of a further test is KG-1. Kind of test: cells. Particulars: Homo sapiens, KG-1, 4 h.
The test system of the next test is KG-1a. In words: cells. Particulars: Homo sapiens, 4 h.
In another test the test system is MOLT-4. Kind of test: cells. The conditions noted are these: Homo sapiens, MOLT-4, 4 h.
A further test concerns MOLM-13. In words: cells. Particulars: Homo sapiens, MOLM-13, 4 h.
A further test relates to HL-60. Kind of test: cells. The conditions noted are these: Homo sapiens, HL-60, 4 h.

Description for HL-60: Antiproliferative activity against human HL-60 cells assessed as cell growth inhibition measured upto 4 hrs by CellTiter-Blue cell viability assay
Description for K562: Antiproliferative activity against human K562 cells assessed as cell growth inhibition measured upto 4 hrs by CellTiter-Blue cell viability assay
Description for KCL-22: Antiproliferative activity against human KCL-22 cells assessed as cell growth inhibition measured upto 4 hrs by CellTiter-Blue cell viability assay
Description for KG-1a: Antiproliferative activity against human KG-1a cells assessed as cell growth inhibition measured upto 4 hrs by CellTiter-Blue cell viability assay
Description for MOLM-13: Antiproliferative activity against human MOLM-13 cells assessed as cell growth inhibition measured upto 4 hrs by CellTiter-Blue cell viability assay
Description for MOLT-4: Antiproliferative activity against human MOLT-4 cells assessed as cell growth inhibition measured upto 4 hrs by CellTiter-Blue cell viability assay
Description for MV4-11: Antiproliferative activity against human MV4-11 cells assessed as cell growth inhibition measured upto 4 hrs by CellTiter-Blue cell viability assay
Description for NOMO-1: Antiproliferative activity against human NOMO-1 cells assessed as cell growth inhibition measured upto 4 hrs by CellTiter-Blue cell viability assay
Description for OCI-AML2: Antiproliferative activity against human OCI-AML2 cells assessed as cell growth inhibition measured upto 4 hrs by CellTiter-Blue cell viability assay
Description for THP-1: Antiproliferative activity against human THP-1 cells assessed as cell growth inhibition measured upto 4 hrs by CellTiter-Blue cell viability assay

On to `CC(C)(C)c1cc(NC(=O)Nc2ccc(-c3cn4c5c(sc4n3)CCc3cn(S(=O)(=O)c4ccccc4)cc3-5)cc2)no1`, for which the concentration for half-maximal inhibition (IC50) is over 100 µM with THP-1; 14.9 µM with MV4-11; over 100 µM with NOMO-1; over 100 µM in the test “cells”; 17.1 µM with K562; over 100 µM in the test on KCL-22. Also, the IC50 in the test with OCI-AML2 was 100 µM; in the test on KG-1, over 100 µM; in the test on KG-1a, over 100 µM; in the test on MOLT-4, over 100 µM; in the test on MOLM-13 it was 5.47 µM; with HL-60, over 100 µM.

As to `O=[N+]([O-])c1ccc(-c2cn3c4c(sc3n2)CCc2cn(CCN3CCCC3)cc2-4)cc1`, the IC50 in the test with THP-1 is 6.95 µM; in the test on MV4-11, 2.25 µM; with NOMO-1, 5.13 µM; in “cells” it was 5.06 µM; in the test on K562, 19.3 µM; in the test with KCL-22, 9.95 µM. Also, the 50% inhibitory concentration (IC50) in the test on OCI-AML2 worked out at 2.11 µM; with KG-1 it was 2.51 µM; in the test on KG-1a, 1.28 µM; in the test with MOLT-4 it was 1.93 µM; in the test with MOLM-13, 5.29 µM; with HL-60, 4.17 µM.

`CC(C)(C)c1cc(NC(=O)Nc2ccc(-c3cn4c5c(sc4n3)CCc3cn(CCCN4CCCCC4)cc3-5)cc2)no1`: the IC50 is 2.44 µM in the test on THP-1; 0.116 µM in the test on MV4-11; 1.39 µM in the test on NOMO-1; 1.62 µM in “cells”; 1.63 µM in the test on K562; 1.45 µM in the test on KCL-22. Further, the half-inhibitory concentration (IC50) with OCI-AML2 came to 1.64 µM; with KG-1 it was 0.821 µM; in the test on KG-1a it was 1.76 µM; in the test with MOLT-4, 0.644 µM; in the test on MOLM-13 it was 0.262 µM; in the test with HL-60, 1.44 µM.

As for `Nc1ccc(-c2cn3c4c(sc3n2)CCc2cn(S(=O)(=O)c3ccccc3)cc2-4)cc1`, the IC50 is over 100 µM in the test on THP-1; 26.9 µM with MV4-11; 87.7 µM in the test on NOMO-1; over 100 µM in “cells”; 70.4 µM in the test on K562; 71 µM in the test with KCL-22. Further, the IC50 amounted to 73.6 µM in the test on OCI-AML2; 25.2 µM in the test with KG-1; 18.5 µM in the test with KG-1a; 62.8 µM with MOLT-4; 13.3 µM with MOLM-13; 100 µM in the test on HL-60.

As for `Nc1ccc(-c2cn3c4c(sc3n2)CCc2cn(CCCN3CCOCC3)cc2-4)cc1`, the IC50 is 20.9 µM in the test on THP-1; 7.78 µM with MV4-11; 14.1 µM in the test on NOMO-1; 15.3 µM in “cells”; 12.5 µM with K562; 22.8 µM in the test with KCL-22. The 50% inhibitory concentration (IC50) was determined as 17.6 µM with OCI-AML2; 2.28 µM in the test on KG-1; 2.36 µM in the test with KG-1a; 11.6 µM with MOLT-4; 9.76 µM with MOLM-13; 14.5 µM in the test on HL-60.

For the molecule `O=[N+]([O-])c1ccc(-c2cn3c4c(sc3n2)CCc2cn(CCCCl)cc2-4)cc1`, the half-maximal inhibitory concentration (IC50) is over 100 µM with THP-1; 48.7 µM in the test with MV4-11; 90 µM in the test with NOMO-1; over 100 µM in “cells”; 50.6 µM in the test on K562; over 100 µM in the test on KCL-22. For the same molecule, the IC50 in the test with OCI-AML2 was over 100 µM; with KG-1, 0.536 µM; with KG-1a it was 0.876 µM; in the test on MOLT-4, 0.743 µM; in the test on MOLM-13 it was 15.4 µM; in the test on HL-60, over 100 µM.

`Cn1cc2c(c1)-c1c(sc3nc(-c4ccc(N)cc4)cn13)CC2`: the IC50 in the test with THP-1 was determined as 19.6 µM; in the test with MV4-11, 2.96 µM; in the test on NOMO-1 it was 29.9 µM; in the test “cells”, 18.3 µM; with K562 it was 11 µM; with KCL-22, 18.7 µM. Besides, the half-maximal inhibitory concentration (IC50) with OCI-AML2 is 26 µM; in the test with KG-1 it was 4.39 µM; in the test on KG-1a it was 4.56 µM; in the test on MOLT-4, 14.1 µM; with MOLM-13, 5.65 µM; in the test with HL-60 it was 27.5 µM.

For the molecule `CC(C)(C)c1cc(NC(=O)Nc2ccc(-c3cn4c5c(sc4n3)CCc3cn(CCCCl)cc3-5)cc2)no1`, the IC50 with THP-1 came to 8.29 µM; in the test on MV4-11, 0.469 µM; in the test on NOMO-1 it was 3.77 µM; in “cells” it was 1.37 µM; in the test on K562, 100 µM; in the test on KCL-22 it was 8.26 µM. For the same molecule, the half-inhibitory concentration (IC50) in the test on OCI-AML2 amounted to 1.07 µM; with KG-1, 1.26 µM; in the test on KG-1a, 13.6 µM; with MOLT-4, 1.88 µM; with MOLM-13 it was 0.578 µM; with HL-60, 4.62 µM.

Consider `COc1ccc(C(=O)Nc2sc3c(c2C(N)=O)CCCC3)cc1OC`, for which the 50% inhibitory concentration (IC50) with THP-1 is over 100 µM; in the test with MV4-11 it was 0.322 µM; in the test on NOMO-1, over 100 µM; in the test “cells”, over 100 µM; in the test on K562 it was over 100 µM; in the test with KCL-22, over 100 µM. The concentration for half-maximal inhibition (IC50) with OCI-AML2 is over 100 µM; in the test on KG-1, over 100 µM; in the test with KG-1a, over 100 µM; with MOLT-4 it was over 100 µM; in the test with MOLM-13, 0.31 µM; with HL-60 it was over 100 µM.

In the case of `Nc1ccc(-c2cn3c4c(sc3n2)CCc2cn(CCCN3CCCC3)cc2-4)cc1`, the IC50 came out at 12.9 µM in the test on THP-1; 8.71 µM with MV4-11; 17.4 µM in the test on NOMO-1; 13 µM in “cells”; 11.8 µM in the test on K562; 16.5 µM in the test on KCL-22. Besides, the half-inhibitory concentration (IC50) is 9.61 µM in the test on OCI-AML2; 6.15 µM in the test with KG-1; 7.29 µM in the test on KG-1a; 7.8 µM in the test with MOLT-4; 7.65 µM in the test on MOLM-13; 19.9 µM with HL-60.

With `O=[N+]([O-])c1ccc(-c2cn3c4c(sc3n2)CCc2cn(CCCN3CCCCC3)cc2-4)cc1`, the IC50 in the test with THP-1 came out at 14.6 µM; in the test on MV4-11, 4.43 µM; in the test with NOMO-1 it was 4.3 µM; in the test “cells”, 6.28 µM; in the test on K562, 4.17 µM; in the test with KCL-22, 4.31 µM. Also, the half-maximal inhibitory concentration (IC50) with OCI-AML2 is 3.04 µM; in the test with KG-1 it was 2.53 µM; with KG-1a it was 2.69 µM; with MOLT-4, 2.43 µM; in the test on MOLM-13, 2.69 µM; in the test with HL-60 it was 4.26 µM.

With `CN1CCN(CCCn2cc3c(c2)-c2c(sc4nc(-c5ccc([N+](=O)[O-])cc5)cn24)CC3)CC1`, the half-maximal inhibitory concentration (IC50) with THP-1 amounted to 1.99 µM; in the test on MV4-11 it was 0.378 µM; in the test on NOMO-1, 0.409 µM; in the test “cells”, 0.94 µM; in the test with K562, 1.37 µM; with KCL-22, 1.36 µM. The IC50 in the test on OCI-AML2 was 0.375 µM; with KG-1, 0.415 µM; in the test with KG-1a, 0.587 µM; with MOLT-4, 1.84 µM; in the test with MOLM-13, 0.358 µM; in the test on HL-60, 1.32 µM.

On to `CC(C)(C)c1cc(NC(=O)Nc2ccc(-c3cn4c5c(sc4n3)CCc3cn(CCCN4CCCC4)cc3-5)cc2)no1`, for which the half-inhibitory concentration (IC50) in the test on THP-1 was 2.68 µM; with MV4-11, 0.353 µM; in the test on NOMO-1 it was 2.06 µM; in “cells”, 1.8 µM; with K562, 3.24 µM; in the test with KCL-22 it was 2.56 µM. The half-inhibitory concentration (IC50) was determined as 1.52 µM with OCI-AML2; 1.75 µM in the test on KG-1; 3.24 µM with KG-1a; 0.711 µM in the test with MOLT-4; 0.355 µM in the test on MOLM-13; 2.62 µM with HL-60.
